In brackets after ≈: the same amount, converted by molar mass.
System: Myzus persicae, extremely resistant strain (794Jz)
Test: Aphid dip test, resistant strain
Assay type: in vivo
Settings: read-out: % mortality corrected for control data

Compound	mortality at 40 ppm [%]	mortality at 100 ppm [%]	mortality at 250 ppm [%]
CC1(C2=C(O)C(=O)c3ccccc3C2=O)CCCCC1 [Example 25, 2-hydroxy-3-(1'-methylcyclohexyl)-naphthalene-1,4-dione]	10	27	79
CCC(C)(C)C1=C(O)C(=O)c2ccccc2C1=O [Example 1, 2-(1,1-dimethylpropyl)-3-hydroxynaphthalene-1,4-dione]		10	43
CCC(C)(C)C1=C(OC(C)=O)C(=O)c2ccccc2C1=O [Example 2, 2-(1,1-dimethylpropyl)-3-ethanoyloxy-naphthalene-1,4-dione]		17	47
CC(C)(C)C1=C(O)C(=O)c2ccccc2C1=O [Example 3, 2-(t-butyl)-3-hydroxy-naphthalene-1,4-dione]	10	13	87

System: resistant strain of whitefly (Ned 1/2)
Test: Whitefly vial test, resistant strain Ned 1/2
Assay type: in vivo
Settings: Bemisia tabaci, 48 h, read-out: BT (Ned 1/2) (LC50)
Method: Acetone solutions (0.100 ml) of the test compounds were placed in 10 ml glass vials and evaporated with rotation to deposit a film of the compound. Thirty adult whiteflies were placed inside the vial, then after 60 minutes, the treated insects were transferred onto untreated cotton leaf discs which were kept moist on a bed of agar gel. The temperature was maintained at 25°C and mortality assessed after 48 hours. Three replicates were used at each of 5 to 7 dose levels per compound. LC50 values (ppm solution) were calculated by using a computer software package ("Polo-PC available from LeOra Software, Berkeley, California) (See M.R. Cahill and B. Hackett in Proceedings Brighton Crop Protection Conference, 1992). The test was carried out using a susceptible strain of whitefly (SUD-S) which was collected in Sudan in 1978 from cotton.
The whitefly activity test with (BT (SUD-S)) was repeated using a resistant strain of whitefly (Ned 1/2).

Compound	LC50 [µg/mL]
CC1(C2=C(O)C(=O)c3ccccc3C2=O)CCCCC1 [Example 25, 2-hydroxy-3-(1'-methylcyclohexyl)-naphthalene-1,4-dione]	0.1 (≈ 0.37 µM)
CC(C)(C)C1CCC(C2=C(O)C(=O)c3ccccc3C2=O)CC1 (stereo not drawn) [Compound B, 2-hydroxy-3-(4-t-butylcyclohexyl)-naphthalene-1,4-dione, reference compound]	100 (≈ 320 µM)

— EP0802730B1, “PESTICIDAL COMPOUNDS” (BTG INTERNATIONAL LIMITED, priority 1995, dated 1996)
